For series [1] the following is noted: Liquid; for mass density: 101.33 kPa.
Series [2] is described as follows: refractive index (Na D-line) (dimensionless). The following applies: 101.33 kPa, Liquid, Standard Abbe refractometry.

± gives the expanded uncertainty stated by the source.

Regarding `Clc1ccccc1` [chlorobenzene], the mass density in series [1] (293.15 K) was found to be 1106 ± 5 kg/m3. For the same compound, the “vapor or sublimation pressure” value in series [1] (402.55 K) is reported as 94.6 ± 0.3 kPa. The refractive index in series [2] (293.15 K) is listed as 1.5248 ± 0.0007.
On to `CC(Cl)(Cl)Cl` [1,1,1-trichloroethane], for which, in series [1] (298.15 K), the mass density is 1330 ± 5 kg/m3. Further, the “vapor or sublimation pressure” value in series [1] (345.25 K) was 94.6 ± 0.3 kPa; in series [1] (345.35 K), 94.6 ± 0.2 kPa; in series [1] (345.65 K) it was 95.8 ± 0.3 kPa. Further, in series [2] (298.15 K), the refractive index is listed as 1.436 ± 0.0007.
Take `ClC(Cl)=C(Cl)Cl` [tetrachloroethene]: the mass density in series [1] (298.15 K) is recorded as 1615 ± 5 kg/m3. Also, the “vapor or sublimation pressure” value in series [1] (391.25 K) was found to be 94.6 ± 0.2 kPa; in series [1] (391.65 K) it was 95.8 ± 0.2 kPa. Further, the refractive index in series [2] (298.15 K) was determined as 1.505 ± 0.0007.
Turning to `CCCCCCC` [heptane], the mass density in series [1] (298.15 K) worked out at 679.5 ± 5 kg/m3. Further, the “vapor or sublimation pressure” value in series [1] (369.75 K) and in series [1] (369.78 K) was 95.8 ± 0.3 kPa in each case. The refractive index in series [2] (298.15 K) came to 1.3851 ± 0.0007.
Turning to `O=[N+]([O-])c1ccccc1` [nitrobenzene], the mass density in series [1] (298.15 K) worked out at 1198 ± 5 kg/m3. Besides, in series [1] (481.15 K), the “vapor or sublimation pressure” value turned out to be 94.6 ± 0.3 kPa. The refractive index in series [2] (298.15 K) is 1.55 ± 0.001.
For `ClC(Cl)C(Cl)Cl` [1,1,2,2-tetrachloroethane], in series [1] (298.15 K), the mass density was determined as 1587 ± 5 kg/m3. Besides, the “vapor or sublimation pressure” value is on record as 94.6 ± 0.2 kPa in series [1] (416.95 K) and 95.8 ± 0.2 kPa in series [1] (417.35 K). In addition, in series [2] (298.15 K), the refractive index is on record as 1.494 ± 0.0007.
In the case of `ClC=C(Cl)Cl` [trichloroethene], in series [1] (298.15 K), the mass density is 1464 ± 5 kg/m3. Moreover, the “vapor or sublimation pressure” value in series [1] (358.25 K) stood at 94.6 ± 0.3 kPa; in series [1] (358.55 K) it was 95.8 ± 0.3 kPa. Further, the refractive index in series [2] (298.15 K) was determined as 1.4782 ± 0.0007.
Regarding `ClCCCl` [1,2-dichloroethane], the mass density in series [1] (298.15 K) worked out at 1247 ± 5 kg/m3. In addition, the “vapor or sublimation pressure” value in series [1] (354.95 K) was 94.6 ± 0.3 kPa; in series [1] (355.05 K) it was 94.6 ± 0.3 kPa; in series [1] (355.25 K) it was 95.8 ± 0.3 kPa. In addition, in series [2] (298.15 K), the refractive index is given as 1.4421 ± 0.0007.

The values are drawn from the NIST ThermoML archive (doi:10.1021/je0301085).
